Laboratory results published in ChEMBL document CHEMBL4813973, “Discovery of novel N-benzylbenzamide derivatives as tubulin polymerization inhibitors with potent antitumor activities” (Eur J Med Chem, 2021).
In brackets after ≈: the same amount, converted by molar mass. Activity calls are given as the source filed them. The rule behind the calls is not given here.

Key:
Sus scrofa [1] = species on record: Sus scrofa; experiment: Inhibition of [3H]colchicine binding to biotinylated pig brain tubulin at 1 uM incubated for 2 hrs in presence of GTP by competitive scintillation proximity assay; type: tissue-based
MDA-MB-231 = experiment: Antiproliferative activity against human MDA-MB-231 cells assessed as reduction in cell viability incubated for 72 hrs by MTT assay; type: functional, cell-based; settings: MDA-MB-231, 72 h
Sus scrofa [2] = species on record: Sus scrofa; experiment: Inhibition of [3H]colchicine binding to biotinylated pig brain tubulin at 5 uM incubated for 2 hrs in presence of GTP by competitive scintillation proximity assay; type: tissue-based
Bel-7402 [3] = experiment: Antiproliferative activity against ADR-resistant human Bel-7402 cells assessed as reduction in cell viability incubated for 72 hrs by MTT assay; type: functional, cell-based
HCT-8 [4] = experiment: Antiproliferative activity against human HCT-8 cells assessed as reduction in cell viability incubated for 72 hrs by MTT assay; type: functional, cell-based
L02 = experiment: Cytotoxicity against human L02 cells assessed as reduction in cell viability incubated for 72 hrs by MTT assay; type: cell-based; settings: L02, 72 h
HepG2 = experiment: cells; settings: Homo sapiens, HepG2, 72 h
A-431 = experiment: Antiproliferative activity against human A-431 cells assessed as reduction in cell viability incubated for 72 hrs by MTT assay; type: functional, cell-based; settings: A-431, 72 h
[5] = Metabolic stability in rat plasma assessed as parent compound remaining at 100 nM measured after 60 mins by HPLC analysis; type: ADME, cell-free; settings: 1 h, 0.1 µM
HCT-8 [6] = experiment: Antiproliferative activity against taxol-resistant human HCT-8 cells assessed as reduction in cell viability incubated for 72 hrs by MTT assay; type: functional, cell-based
[7] = Inhibition of pig brain tubulin polymerisation incubated for 30 mins and measured every 2 mins for 60 mins by spectrophotometric method; type: tissue-based, Sus scrofa
H22 [8] = experiment: Antiproliferative activity against mouse H22 cells assessed as reduction in cell viability incubated for 72 hrs by MTT assay; type: functional, cell-based; settings: H22, 72 h
H22 [9] = experiment: Antitumor activity against […] xenografted in ICR mouse assessed as reduction of tumor weight at 20 mg/kg/day, iv for 21 days; type: functional; settings: 504 h, time 21 day
[10] = Resistant index, ratio of IC50 for VCR resistant human K562 cells to IC50 for human K562 cells; type: functional
[11] = Resistant index, ratio of IC50 for ADR-resistant human Bel-7402 cells to IC50 for human Bel-7402 cells; type: functional
[12] = Metabolic stability in rat plasma assessed as parent compound remaining at 100 nM measured after 3 hrs by HPLC analysis; type: ADME, cell-free; settings: read-out: Stabilty
Bel-7402 [13] = experiment: Antiproliferative activity against human Bel-7402 cells assessed as reduction in cell viability incubated for 72 hrs by MTT assay; type: functional, cell-based
K562/VCR = experiment: Antiproliferative activity against VCR resistant human K562/VCR cells assessed as reduction in cell viability incubated for 72 hrs by MTT assay; type: functional, cell-based
K562 [14] = experiment: cells; settings: Homo sapiens, K562, 72 h
Description: (§1) Antiproliferative activity against human K562 cells assessed as reduction in cell viability incubated for 72 hrs by MTT assay

[15] = Resistant index, ratio of IC50 for taxol-resistant human HCT-8 cells to IC50 for human HCT-8 cells; type: functional
[16] = Acute toxicity in ICR mouse assessed as animal survival at 327.7 mg/kg, iv measured for 14 days; type: organism-based; settings: in vivo, time 14 day
[17] = Toxicity in ICR mouse xenografted with […] cells assessed as effect on heart morphological changes at 20 mg/kg/day, iv for 21 days by H and E staining based assay; type: organism-based; settings: in vivo, 504 h, time 21 day
[18] = Acute toxicity in ICR mouse assessed as animal survival at 512 mg/kg, iv measured for 14 days; type: organism-based; settings: in vivo, time 14 day
[19] = Toxicity in ICR mouse xenografted with […] cells assessed as effect on body weight at 20 mg/kg/day, iv for 21 days; type: organism-based; settings: in vivo, 504 h, time 21 day
[20] = Acute toxicity in ICR mouse assessed as animal survival at 409.6 mg/kg, iv measured for 14 days; type: organism-based; settings: in vivo, time 14 day
[21] = Toxicity in ICR mouse xenografted with […] cells assessed as effect on lungs morphological changes at 20 mg/kg/day, iv for 21 days by H and E staining based assay; type: organism-based; settings: in vivo, 504 h, time 21 day
H22 [22] = experiment: Antitumor activity against […] xenografted in ICR mouse assessed as reduction in tumor growth at 20 mg/kg/day, iv for 21 days; type: functional, organism-based; settings: time 21.0 day
[23] = Acute toxicity in ICR mouse assessed as animal survival at 800 mg/kg, iv measured for 14 days; type: organism-based; settings: in vivo, time 14 day
[24] = Toxicity in ICR mouse xenografted with […] cells assessed as effect on spleen morphological changes at 20 mg/kg/day, iv for 21 days by H and E staining based assay; type: organism-based; settings: in vivo, 504 h, time 21 day
[25] = Toxicity in ICR mouse xenografted with […] cells assessed as effect on liver morphological changes at 20 mg/kg/day, iv for 21 days by H and E staining based assay; type: organism-based; settings: in vivo, 504 h, time 21 day
[26] = Aqueous solubility of the compound in aqueous HCl at pH 2 by HPLC-UV analysis; type: physicochemical
[27] = Aqueous solubility of the compound in phosphate buffer at pH 7.4 by HPLC-UV analysis; type: physicochemical
[28] = Acute toxicity in iv dosed ICR mouse; type: organism-based; settings: in vivo
[29] = Acute toxicity in ICR mouse assessed as animal survival at 640 mg/kg, iv measured for 14 days; type: organism-based; settings: in vivo, time 14 day
[30] = Toxicity in ICR mouse xenografted with […] cells assessed as effect on kidney morphological changes at 20 mg/kg/day, iv for 21 days by H and E staining based assay; type: organism-based; settings: in vivo, 504 h, time 21 day
[31] = n-Octanol/water partition coefficient, logD of the compound incubated for 24 hrs at pH 7.4 by HPLC analysis; type: physicochemical
K562 [32] = tested on: K562
Description: as §1

H22 [33] = experiment: Antitumor activity against […] xenografted in ICR mouse assessed as reduction in tumor weight at 6 mg/kg, iv dosed every other day for 21 days; type: functional; settings: 504 h, time 21 day
[34] = Homo sapiens, Bel-7402, 72 h, read-out: IC50
[35] = Homo sapiens, HCT-8, 72 h, read-out: IC50

| Structure (SMILES) | inhibition (Sus scrofa [1]) | inhibition (Sus scrofa [2]) | IC50 (Bel-7402 [3]; [34]) | IC50 (HepG2) | Stabilty [5] | IC50 (HCT-8 [6]; [35]) | IC50 [7] | IC50 (H22 [8]) | inhibition in vivo at 20 mg/kg/day (H22 [9]) | Ratio IC50 [10] | Ratio IC50 [11] | Ratio IC50 [15] | solubility [26] | solubility [27] | IC50 (K562 [32]) | IC50 (K562/VCR; k562/vcr) | further results |
| --- | --- | --- | --- | --- | --- | --- | --- | --- | --- | --- | --- | --- | --- | --- | --- | --- | --- |
| CSc1ccc(COC(=O)c2cc([N+](=O)[O-])ccc2N2CCOCC2)cc1 | 58% | 85.7% | 268 nM | 33 nM | Stable | 221 nM | 2990 nM | 25 nM | 66.7% | 29.7 | 4.8 | 8.2 | – | – | – | – | IC50 (MDA-MB-231): 31 nM; IC50 (HCT-8 [4]; [35]): 27 nM; IC50 (L02): 44 nM; IC50 (A-431): 10 nM; remaining at 3 h, 0.1 µM [12]: 72.6%; IC50 (Bel-7402 [13]; [34]): 56 nM; IC50 (K562/VCR; Homo sapiens, K562/VCR, 72 h, read-out: IC50): 297 nM; IC50 (K562 [14]): 10 nM |
| COc1ccc(CNC(=O)c2cc(F)ccc2N2CCOCC2)cc1OP(=O)([O-])[O-].[Na+].[Na+] | – | – | – | – | – | – | 6180 nM | – | 71.4% | – | – | – | > 1000 µg/mL | > 1000 µg/mL | – | – | survival at 336 h [16]: 90%; Activity [17]: Non-Toxic; survival at 336 h [18]: 70%; Activity [19]: Non-Toxic; survival at 336 h [20]: 80%; Activity [21]: Non-Toxic; Activity (H22 [22]): Active; survival at 336 h [23]: 20%; Activity [24]: Non-Toxic; Activity [25]: Non-Toxic; LD50 [28]: 600 mg/kg; survival at 336 h [29]: 50%; Activity [30]: Non-Toxic |
| CCOC(=O)[C@H](CCc1ccccc1)N[C@@H](C)C(=O)N1CCC[C@H]1C(=O)O [ENALAPRIL] | – | – | – | – | Unstable | – | – | – | – | – | – | – | – | – | – | – | – |
| COc1ccc(/C=C\c2cc(OC)c(OC)c(OC)c2)cc1O [COMBRETASTATIN A4] | 80.2% | 90.3% | 58 nM | 10 nM | – | 87 nM | 2640 nM | 15 nM | 54.9% | 8.1 | 5.3 | 7.9 | < 1 µg/mL | 1 µg/mL (≈ 3.16 µM) | – | – | logD at 24 h [31]: 2.68 |
| COc1cccc2c1C(=O)c1c(O)c3c(c(O)c1C2=O)C[C@@](O)(C(=O)CO)C[C@@H]3O[C@H]1C[C@H](N)[C@H](O)[C@H](C)O1.Cl [DOXORUBICIN HYDROCHLORIDE] | – | – | – | – | – | – | – | – | – | – | 6.3 | – | – | – | Not Active | Not Active | IC50 (HCT-8 [4]; hct-8): Not Active; IC50 (HCT-8 [6]; hct-8): Not Active |
| CC(=O)O[C@H]1C(=O)[C@@]2(C)[C@H]([C@H](OC(=O)c3ccccc3)[C@]3(O)C[C@H](OC(=O)[C@H](O)[C@@H](NC(=O)c4ccccc4)c4ccccc4)C(C)=C1C3(C)C)[C@]1(OC(C)=O)CO[C@@H]1C[C@@H]2O [PACLITAXEL] | – | – | – | – | – | – | – | – | – | – | – | – | – | – | Not Active | Not Active | IC50 (Bel-7402 [3]; bel-7402): Not Active; inhibition in vivo at 6 mg/kg (H22 [33]): 72.7%; IC50 (Bel-7402 [13]; bel-7402): Not Active |
